One data set concerns PCSK9 mRNA. Put plainly: Target knock down (PCSK9 mRNA levels) in PTEC-TERT1 cells. The settings on record: normalized to PPIB. The format is cell-based, human. The procedure: For assessment of the target knock down (PCSK9 mRNA levels) total mRNA was extracted from the cells adding 100 μl of 1× RNA lysis mixture (QuantiGene® Sample Processing Kit, QS0101) directly into the wells according to the manufacturer's instructions. RNA lysis mixtures were kept at −80° C. until analysis. For gene expression analysis, 20 μl of lysates were mixed with an mRNA-capture magnetic beads sets (Panomics QuantiGene® Plex Set catalog #12697), incubated overnight, processed for branched DNA amplification and analyzed according to the manufacturer's instructions (Panomics QuantiGene® Plex Assay kit, QP1015). The PPIB probe was used as housekeeping gene for normalization. Average Fluoresence Intensity (FI) and standard deviation of 3 biological replicates were calculated and normalized on vehicle control. The results are shown in table 11, and represent the average of three identical treatments.

Data set [1] has as its system A549 cells. Put plainly: EGF assay, A549 cells transfected with oligonucleotide.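 Note: values as percent of saline control.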 The format is cell-based, human. Conditions: A549, 48 hours after transfection. As to the method:
(§1) A549 cells (ATCC CCL-185) were cultivated according to the manufacturer's instructions in A549 medium [F-12K Nut Mix (Gibco, 21127-022), 1% penicillin/streptomycin (Gibco: 15140-122), 10% FBS (Gibco 16000-044)].
(§2) Prior to treatment with oligonucleotides the A549 cells were seeded in 96 well plates at 3′000 cells per well in A549 regular medium and grown until 60% confluence. […]
(§3) A549 were cultivated as described in the “Materials and methods” section. At after at 50-60% confluence the oligonucleotides were transfected into the cells using 0.5 μl Lipofectamin (Invitrogen, 11668-019) in 25 μl OptiMEM® (GIBCO 31985062) and 1 ng or 10 ng oligonucleotide in the same volume OptiMEM. The cells were incubated over night at 37° C. The medium was changed using A459 regular medium+10 ng/ml EGF. 48 hours after transfection the medium was collected for EGF measurements and the cells were harvested for ATP measurements.

For a further data set, the system named is PTEC-TERT1 cells. Put plainly: Morphological changes of PTEC-TERT1 cells upon oligonucleotide treatment. The format is cell-based, human. Conditions: 100 μM oligonucleotide, 7 days, bright field microscopy, vs saline. As to the method: PTEC-TERT1 cells were cultures as described in the “Materials and methods” section. To mimic the physiological exposure of renal tubules to circulating naked oligonucleotide (i.e. without assistance of delivery technology, herein termed gymnosis or gymnotic delivery), confluent monolayers of PTEC-TERT1 cells were exposed to an aqueous solution of 100 μM oligonucleotide. The medium was replaced every three days including 100 μM fresh oligonucleotide in the fresh medium.
After 7 days of treatment the morphological alterations in the treated cell cultures were investigated under bright field microscopy.

Data set [2] deals with Wistar Han Crl:WI(Han) male rats. Kind of data set: In vivo nephrotoxicity in rats. The settings on record: 40 mg/kg on days 1 and 8, assessed day 15, 40 mg/kg. As to the method:
Purpose bred Wistar Han Crl:WI(Han) male rats obtained from Charles River Laboratories at 7 to 8 weeks of age were divided into groups of 4 (table 1, exp. A) or 8 (table 1, exp. B) based on body weight and acclimatized for at least 5 days before dosing. The animals were housed under standard environmental conditions ([…], relative humidity 50±20%, a light/dark cycle 12 h/12 h, pelleted food and water ad libitum), were offered enriched environment in an AAALAC accredited facility and were regularly and carefully monitored. All procedures were in accordance with the respective local regulations and according to the animal permissions granted by the Institutional Animal Care and Use Committee. Test compounds were formulated in isotonic sterile saline, sterile filtered (0.22 μm), and dosed at 40 mg/kg on days 1 and 8 (2.5 ml/kg) in the intrascapular region. Control group animals received saline as vehicle control. On day 15 animals were orally administered tap water (10 ml/kg), and urine was collected on ice for 6 hours in metabolic cages. […] On day 15 the rats were sacrificed by an intraperitoneal injection of pentobarbital and exsanguinated. Kidney cortex samples were collected and fixed by immersion in 10% neutral buffered formalin, embedded in paraffin, sectioned to 5 μm and stained with hematoxylin and eosin (H&). The H&E sections were then scanned at 20× magnification using an Aperio ScanScope AT™ (Leica Biosystems) scanner and pictures were then captured via ImageScope™ software from the scanned images. One or more of the following parameters were assessed kidney weight, serum creatinine, urine protein, KIM-1 protein in urine, KIM-1 mRNA, kidney degeneration/regeneration and relative tubulotoxicity grade.

For data set [3], the system named is A549 cells. Kind of data set: Intracellular ATP assay, A549 cells transfected with oligonucleotide.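 Note: ATP as percent of saline control.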 The format is cell-based, human. Conditions: A549, 48 hours after transfection. As to the method: as §1, §2
Each sample was tested in triplicate.
as §3

Data set [4] concerns Human primary proximal tubule epithelial cells (PTEC). Kind of data set: EGF assay, supernatant of primary PTEC cells.
Description: Prior to treatment with oligonucleotides the primary PTEC cells were seeded into collagen I-coated 96-well plates (Corning, 356407) at a density of 40 000 and 20 000 cells/well respectively in PTEC medium and grown until confluence.
Oligonucleotides were dissolved in PBS and added to the cell culture at the given concentration, such as 10, 30 or 100 μM. The total volume of each well was 100 μl. PBS served as vehicle control.
When extra cellular markers, like EGF and KIM-1, were analyzed following the oligonucleotide treatment the medium was collected and stored at −20° C. until further analysis. […] The collected medium was stored at −20° C.
For analysis of human EGF, cell supernatants were thawed on ice, diluted 1:2 and 1:10 in sample dilution buffer (BioRad catalog # M60-009RDPD) and analyzed by Luminex®-based ELISA using human EGF beads (Bio-Plex Pro™ Human Cancer Biomarker Panel 2 EGF Set#171BC603M), or followed by analysis using the Bio-Plex® 200 Systems (BioRad) according to the manufacturer's instructions. Data are reported as mean concentrations and standard deviations of triplicate wells. An increase of EGF levels above 200% was considered as predictive for nephrotoxicity.
Data set [5] relates to Primary human hepatocytes. Kind of data set: EGF assay, culture media of primary human hepatocytes.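 Note: values as percent of saline vehicle control.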 The format is cell-based. Conditions: 10 ng/ml EGF in medium. The procedure: Cryopreserved human hepatocytes were suspended in William's Medium E (WME) without phenol red (Sigma W-1878) supplemented with 10% fetal calf serum, penicillin (100 U/ml), streptomycin (0.1 mg/ml) at a density of approx. 1×10^6 cells/ml and seeded into collagen-coated 96-well plates (Becton Dickinson AG, Allschwil, Switzerland) at a density of 0.4×10^5 cells/well. Cells were pre-cultured for 3 to 4 h allowing for attachment to cell culture plates before start of treatment with oligonucleotides.
Before oligonucleotide treatment the seeding medium was replaced by 90 μl of serum free WME.
The total volume of each well was 100 μl. PBS served as vehicle control.
Human primary hepatocytes were cultivated as described in the “Materials and methods” section with addition of 10 ng/ml of EGF to the medium. At confluence the cells were treated with oligonucleotide as described in the “Materials and methods” section, in concentrations of 10 or 100 μM.
The medium was obtained at day 3, and the EGF level was measured according to the assay described in the “Materials and methods” section.

[6] abbreviates: PTEC-TERT1, EGF 0 ng/ml in medium.
Where [7] appears, read: PTEC-TERT1, EGF 10 ng/ml in medium.

l = locked nucleic acid (LNA); d = 2'-deoxy (DNA)

As for “GCtgtgtgagcttGG (antisense GCTGTGTGAGCTTGG; sugars from the 5' end l2 d11 l2, backbone and methylation of C not given here) [Compound 4-1]”, the entries for the “PCSK9 mRNA” value with PCSK9 mRNA (setting [6]) and in the data set on PCSK9 mRNA (setting [7]) were 6.84 % of saline and 1.47 % of saline, respectively. In addition, the EGF came out at 132 % saline in the data set on A549 cells [1] (1 ng oligonucleotide); 211 % saline with A549 cells [1] (10 ng oligonucleotide); 198 % saline in data set [4] (Day 3, 3 μM); 323 % saline in data set [4] (Day 3, 10 μM); 373 % saline in data set [4] (Day 3, 30 μM); 631 % saline in data set [4] (Day 3, 100 μM). Besides, the EGF is 525 % saline in data set [4] (Day 6, 3 μM); 1171 % saline in data set [4] (Day 6, 10 μM); 1588 % saline in data set [4] (Day 6, 30 μM); 1403 % saline in data set [4] (Day 6, 100 μM); 323 % saline in data set [5] (day 3, 10 μM); 985 % saline in data set [5] (day 3, 100 μM). Besides, the morphological changes result in the data set with PTEC-TERT1 cells is “adopted a flattened and stable appearance”. In data set [2], the “In vivo nephrotoxicity / in vivo grade of toxicity” value is “high and High and Sever tox”. In addition, the ATP in the data set on A549 cells [3] (1 ng oligonucleotide) was found to be 93 % saline; in the data set with A549 cells [3] (10 ng oligonucleotide) it was 51 % saline.

As for “TGCtacaaaacCCA (antisense TGCTACAAAACCCA; sugars from the 5' end l3 d8 l3, backbone and methylation of C not given here) [Compound 3-1]”, the “PCSK9 mRNA” value is 2.28 % of saline in the data set with PCSK9 mRNA (setting [6]) and 1.46 % of saline in the data set on PCSK9 mRNA (setting [7]). The EGF in the data set with A549 cells [1] (1 ng oligonucleotide) is given as 99 % saline; in the data set on A549 cells [1] (10 ng oligonucleotide), 199 % saline; in data set [4] (Day 3, 3 μM) it was 114 % saline; in data set [4] (Day 3, 10 μM), 139 % saline; in data set [4] (Day 3, 30 μM), 134 % saline; in data set [4] (Day 3, 100 μM), 269 % saline. For the same substance, the EGF in data set [4] (Day 6, 3 μM) came out at 152 % saline; in data set [4] (Day 6, 10 μM) it was 286 % saline; in data set [4] (Day 6, 30 μM), 653 % saline; in data set [4] (Day 6, 100 μM) it was 915 % saline; in data set [5] (day 3, 10 μM), 227 % saline; in data set [5] (day 3, 100 μM), 411 % saline. Also, the morphological changes result in the data set on PTEC-TERT1 cells is “formed irregular domes and vacuoles”. The “In vivo nephrotoxicity / in vivo grade of toxicity” value in data set [2] is reported as “Medium”. Besides, the ATP was 91 % saline with A549 cells [3] (1 ng oligonucleotide) and 44 % saline in the data set with A549 cells [3] (10 ng oligonucleotide).
